The record followed here is patent US20050067347A1, “Sustainable process for the treatment and detoxification of liquid waste” (priority 2001, published 2005).

The subject of the test is Pycnoporus sanguineus MUCL 41582. Put plainly: Laccase activity of fungal culture with inductors. Conditions: for Enzymatic activity: laccase activity, inductor added after 2 days of pre-culture, measured after 5 days of incubation. In kind it is cell-based. As for the experimental part:
In an example, the inductors NY3, NY5 and RBBR were added to a fungal culture of Pycnoporus sanguineus MUCL 41582 after 2 days of pre-culture. Laccase activity was measured after 5 days of incubation of the culture with the inductors. Results are indicated in the below-given Table 2 and show clearly that laccase activity is enhanced when the fungus is cultured in the presence of inductors.

Compound `Nc1c(S(=O)(=O)O)cc(NC2CCCCC2)c2c1C(=O)c1ccccc1C2=O` [NY3] yielded an Enzymatic activity of 3.87 nmol/mL.

`Cc1ccc(OS(=O)(=O)Oc2ccc(Nc3cc(S(=O)(=O)O)c(N)c4c3C(=O)c3ccccc3C4=O)cc2)cc1` [NY5]: the Enzymatic activity amounted to 11.60 nmol/mL. Further, the “increase of laccase activity” value (versus culture without inductor) is “more than 20 fold”.

`Nc1c(S(=O)(=O)[O-])cc(Nc2cccc(S(=O)(=O)CCOS(=O)(=O)[O-])c2)c2c1C(=O)c1ccccc1C2=O.[Na+].[Na+]` [RBBR]: the Enzymatic activity was 5.40 nmol/mL.
